Measurements: ChEMBL document CHEMBL5291721, “A preclinical secondary pharmacology resource illuminates target-adverse drug reaction associations of marketed drugs” (Nat Commun, 2023)

How the values were obtained:
Melanocortin receptor 3 = Melanocortin receptor 3 (Homo sapiens, UniProt P41968)
[1] = target: cGMP-inhibited 3',5'-cyclic phosphodiesterase 3A (Homo sapiens, UniProt Q14432); format: functional
D(3) dopamine receptor = D(3) dopamine receptor (Homo sapiens, UniProt P35462)
[2] = target: 3',5'-cyclic-AMP phosphodiesterase 4D (Homo sapiens, UniProt Q08499); format: functional
Chain of 3',5'-cyclic-AMP phosphodiesterase 4D (Q08499 whole entry): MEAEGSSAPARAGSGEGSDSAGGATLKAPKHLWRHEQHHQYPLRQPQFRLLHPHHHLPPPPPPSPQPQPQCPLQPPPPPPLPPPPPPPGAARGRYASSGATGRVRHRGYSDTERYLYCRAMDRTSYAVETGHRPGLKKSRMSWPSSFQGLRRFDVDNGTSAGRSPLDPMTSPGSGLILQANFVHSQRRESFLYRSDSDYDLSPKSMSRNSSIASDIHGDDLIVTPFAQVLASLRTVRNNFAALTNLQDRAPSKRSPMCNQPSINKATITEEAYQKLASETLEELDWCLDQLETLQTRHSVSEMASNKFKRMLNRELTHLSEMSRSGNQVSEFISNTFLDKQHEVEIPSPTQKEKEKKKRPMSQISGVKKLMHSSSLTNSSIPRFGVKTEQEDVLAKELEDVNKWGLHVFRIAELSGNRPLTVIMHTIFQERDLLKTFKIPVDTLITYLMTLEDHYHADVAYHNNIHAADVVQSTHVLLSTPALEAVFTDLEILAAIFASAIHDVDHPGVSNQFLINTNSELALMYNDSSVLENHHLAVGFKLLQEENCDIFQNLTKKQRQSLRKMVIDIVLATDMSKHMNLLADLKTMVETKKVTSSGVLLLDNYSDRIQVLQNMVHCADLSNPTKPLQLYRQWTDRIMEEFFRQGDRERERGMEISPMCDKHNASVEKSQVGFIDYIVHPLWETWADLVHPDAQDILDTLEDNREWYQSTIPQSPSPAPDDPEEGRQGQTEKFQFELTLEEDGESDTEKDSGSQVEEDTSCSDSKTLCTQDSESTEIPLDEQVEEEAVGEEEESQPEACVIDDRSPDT

Progesterone receptor = target: T1, Progesterone receptor (Homo sapiens, UniProt P06401); format: functional
T1 sequence (P06401 whole entry): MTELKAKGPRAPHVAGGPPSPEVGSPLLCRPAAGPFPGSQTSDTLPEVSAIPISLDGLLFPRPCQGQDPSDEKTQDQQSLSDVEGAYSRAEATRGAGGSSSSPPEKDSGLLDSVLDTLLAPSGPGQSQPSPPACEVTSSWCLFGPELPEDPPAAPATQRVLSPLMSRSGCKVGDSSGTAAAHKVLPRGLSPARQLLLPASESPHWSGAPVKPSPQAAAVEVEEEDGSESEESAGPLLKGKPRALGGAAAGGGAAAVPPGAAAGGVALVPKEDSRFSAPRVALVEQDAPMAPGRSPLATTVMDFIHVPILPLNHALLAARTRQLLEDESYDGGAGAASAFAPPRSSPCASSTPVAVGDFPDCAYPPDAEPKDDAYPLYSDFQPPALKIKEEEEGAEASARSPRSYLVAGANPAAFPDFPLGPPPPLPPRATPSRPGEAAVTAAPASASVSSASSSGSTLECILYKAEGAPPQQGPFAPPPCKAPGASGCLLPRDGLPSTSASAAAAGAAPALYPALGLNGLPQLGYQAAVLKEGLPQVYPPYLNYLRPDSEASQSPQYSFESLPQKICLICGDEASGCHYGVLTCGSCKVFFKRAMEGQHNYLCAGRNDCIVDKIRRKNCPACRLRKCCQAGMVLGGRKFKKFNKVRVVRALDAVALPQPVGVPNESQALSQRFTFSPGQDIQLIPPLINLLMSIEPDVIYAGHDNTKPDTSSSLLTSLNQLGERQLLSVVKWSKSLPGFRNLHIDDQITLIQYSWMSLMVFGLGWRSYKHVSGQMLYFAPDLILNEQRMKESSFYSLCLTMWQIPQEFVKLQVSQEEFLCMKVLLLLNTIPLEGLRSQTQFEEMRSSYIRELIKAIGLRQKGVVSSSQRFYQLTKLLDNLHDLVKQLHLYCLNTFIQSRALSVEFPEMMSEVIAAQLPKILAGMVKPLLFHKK

[3] = target: T2, Amine oxidase [flavin-containing] A (Homo sapiens, UniProt P21397); format: functional
T2 sequence (P21397 whole entry): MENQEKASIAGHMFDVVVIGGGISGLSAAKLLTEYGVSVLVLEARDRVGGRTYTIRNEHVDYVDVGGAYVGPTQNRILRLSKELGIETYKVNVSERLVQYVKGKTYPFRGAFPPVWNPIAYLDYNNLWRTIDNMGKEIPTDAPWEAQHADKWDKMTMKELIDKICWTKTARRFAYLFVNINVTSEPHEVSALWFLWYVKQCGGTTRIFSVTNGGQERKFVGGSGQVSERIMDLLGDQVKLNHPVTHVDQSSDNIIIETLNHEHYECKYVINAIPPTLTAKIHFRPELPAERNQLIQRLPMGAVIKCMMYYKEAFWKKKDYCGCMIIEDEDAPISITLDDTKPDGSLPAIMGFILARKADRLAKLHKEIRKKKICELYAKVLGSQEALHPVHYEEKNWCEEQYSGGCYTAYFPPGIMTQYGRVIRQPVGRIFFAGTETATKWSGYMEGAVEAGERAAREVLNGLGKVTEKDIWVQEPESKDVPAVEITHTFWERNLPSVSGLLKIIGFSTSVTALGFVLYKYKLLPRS

[4] = target: T3, 5-hydroxytryptamine receptor 1A (Homo sapiens, UniProt P08908); format: functional, cell-based
T3 sequence (P08908 whole entry): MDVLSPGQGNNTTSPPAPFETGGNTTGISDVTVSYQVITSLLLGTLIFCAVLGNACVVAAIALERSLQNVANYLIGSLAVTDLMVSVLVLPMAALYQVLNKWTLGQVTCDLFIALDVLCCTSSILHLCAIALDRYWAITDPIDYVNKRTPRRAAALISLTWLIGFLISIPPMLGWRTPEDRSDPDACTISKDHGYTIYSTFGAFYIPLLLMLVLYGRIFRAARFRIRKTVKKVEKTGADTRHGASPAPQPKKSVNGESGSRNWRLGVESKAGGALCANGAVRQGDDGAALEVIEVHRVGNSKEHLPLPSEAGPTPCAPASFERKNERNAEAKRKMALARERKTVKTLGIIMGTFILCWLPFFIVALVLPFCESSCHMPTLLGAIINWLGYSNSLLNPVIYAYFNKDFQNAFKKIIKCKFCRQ

[5] = target: Voltage-dependent L-type calcium channel subunit alpha-1C (Rattus norvegicus, UniProt P22002); format: functional
Chain of Voltage-dependent L-type calcium channel subunit alpha-1C (P22002 whole entry): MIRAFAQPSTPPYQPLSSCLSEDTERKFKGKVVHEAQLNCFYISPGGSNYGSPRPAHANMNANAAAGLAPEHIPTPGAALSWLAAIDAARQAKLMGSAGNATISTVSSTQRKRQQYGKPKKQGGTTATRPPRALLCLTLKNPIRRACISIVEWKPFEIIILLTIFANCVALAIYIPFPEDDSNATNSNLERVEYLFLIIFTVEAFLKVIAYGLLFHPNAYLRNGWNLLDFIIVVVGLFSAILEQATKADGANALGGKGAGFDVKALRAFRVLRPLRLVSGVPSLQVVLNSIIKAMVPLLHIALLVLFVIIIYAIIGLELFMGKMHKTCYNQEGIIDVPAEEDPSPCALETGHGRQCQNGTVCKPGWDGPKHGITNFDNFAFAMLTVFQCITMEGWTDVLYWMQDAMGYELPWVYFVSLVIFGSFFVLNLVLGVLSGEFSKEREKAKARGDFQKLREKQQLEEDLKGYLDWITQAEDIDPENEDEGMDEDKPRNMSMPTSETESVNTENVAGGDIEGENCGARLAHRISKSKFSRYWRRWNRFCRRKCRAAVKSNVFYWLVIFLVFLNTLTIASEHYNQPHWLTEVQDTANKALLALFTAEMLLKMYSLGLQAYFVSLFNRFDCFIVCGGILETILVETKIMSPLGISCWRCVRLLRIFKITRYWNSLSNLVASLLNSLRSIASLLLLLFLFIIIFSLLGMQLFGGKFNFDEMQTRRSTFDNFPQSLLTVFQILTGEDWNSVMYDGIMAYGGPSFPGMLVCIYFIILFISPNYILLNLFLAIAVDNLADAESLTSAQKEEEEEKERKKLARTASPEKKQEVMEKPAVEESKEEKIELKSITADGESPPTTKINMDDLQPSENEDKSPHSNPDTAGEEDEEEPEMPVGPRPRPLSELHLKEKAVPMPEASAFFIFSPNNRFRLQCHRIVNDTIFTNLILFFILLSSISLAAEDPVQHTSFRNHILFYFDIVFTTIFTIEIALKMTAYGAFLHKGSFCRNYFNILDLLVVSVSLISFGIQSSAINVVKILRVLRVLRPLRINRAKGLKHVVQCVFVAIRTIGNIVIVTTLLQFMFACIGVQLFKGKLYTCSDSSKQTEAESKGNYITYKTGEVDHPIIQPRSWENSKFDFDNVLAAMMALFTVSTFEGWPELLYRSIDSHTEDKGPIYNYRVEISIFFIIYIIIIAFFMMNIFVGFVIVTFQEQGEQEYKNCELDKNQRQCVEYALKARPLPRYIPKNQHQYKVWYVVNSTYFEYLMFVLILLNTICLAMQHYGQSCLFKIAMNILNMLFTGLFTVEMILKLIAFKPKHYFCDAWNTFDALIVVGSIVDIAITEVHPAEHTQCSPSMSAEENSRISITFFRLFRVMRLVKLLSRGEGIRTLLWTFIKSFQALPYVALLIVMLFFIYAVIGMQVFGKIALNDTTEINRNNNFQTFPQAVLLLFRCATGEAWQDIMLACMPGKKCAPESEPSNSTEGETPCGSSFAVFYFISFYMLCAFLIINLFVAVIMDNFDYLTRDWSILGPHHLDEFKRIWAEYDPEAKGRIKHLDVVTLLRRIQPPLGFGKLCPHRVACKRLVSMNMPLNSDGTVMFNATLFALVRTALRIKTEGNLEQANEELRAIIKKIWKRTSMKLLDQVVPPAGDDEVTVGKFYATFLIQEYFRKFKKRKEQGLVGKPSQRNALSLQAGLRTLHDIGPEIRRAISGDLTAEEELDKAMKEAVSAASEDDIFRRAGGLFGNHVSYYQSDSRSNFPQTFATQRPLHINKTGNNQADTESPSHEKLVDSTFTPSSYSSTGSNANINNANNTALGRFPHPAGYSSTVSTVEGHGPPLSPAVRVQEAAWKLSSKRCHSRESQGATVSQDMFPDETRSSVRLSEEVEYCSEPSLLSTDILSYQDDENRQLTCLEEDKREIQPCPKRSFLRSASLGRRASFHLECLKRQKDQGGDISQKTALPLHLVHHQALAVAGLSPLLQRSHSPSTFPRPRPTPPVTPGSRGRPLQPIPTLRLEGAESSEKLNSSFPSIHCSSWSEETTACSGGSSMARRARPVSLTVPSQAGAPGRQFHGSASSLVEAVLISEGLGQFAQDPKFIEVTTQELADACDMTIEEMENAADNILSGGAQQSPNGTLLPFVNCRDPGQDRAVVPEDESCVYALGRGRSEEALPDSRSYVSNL

Histamine H2 receptor = Histamine H2 receptor (Homo sapiens, UniProt P25021); format: functional, cell-based
Chain of Histamine H2 receptor (P25021 whole entry): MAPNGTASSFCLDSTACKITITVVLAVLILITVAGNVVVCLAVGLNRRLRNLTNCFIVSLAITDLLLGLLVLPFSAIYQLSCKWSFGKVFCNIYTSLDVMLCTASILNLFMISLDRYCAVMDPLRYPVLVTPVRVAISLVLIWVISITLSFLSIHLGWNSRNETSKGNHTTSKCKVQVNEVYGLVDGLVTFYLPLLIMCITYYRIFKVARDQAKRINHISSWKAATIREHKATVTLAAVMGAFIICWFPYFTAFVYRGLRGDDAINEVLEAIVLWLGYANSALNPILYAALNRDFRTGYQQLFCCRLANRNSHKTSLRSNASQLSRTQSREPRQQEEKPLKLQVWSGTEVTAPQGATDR

Adenosine receptor A3 = target: T4, Adenosine receptor A3 (Homo sapiens, UniProt P0DMS8)
T4 sequence (P0DMS8 whole entry): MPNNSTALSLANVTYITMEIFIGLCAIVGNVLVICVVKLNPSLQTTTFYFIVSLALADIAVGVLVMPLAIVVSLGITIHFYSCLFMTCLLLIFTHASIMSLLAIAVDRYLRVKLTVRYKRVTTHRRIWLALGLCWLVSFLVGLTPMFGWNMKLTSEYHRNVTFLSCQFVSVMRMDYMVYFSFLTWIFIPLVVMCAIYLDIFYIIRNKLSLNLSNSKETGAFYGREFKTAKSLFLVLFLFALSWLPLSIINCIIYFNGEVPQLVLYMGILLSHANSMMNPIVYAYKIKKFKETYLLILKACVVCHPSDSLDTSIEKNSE
Further: assay procedure not described here.

Chain of Melanocortin receptor 3 (P41968 whole entry): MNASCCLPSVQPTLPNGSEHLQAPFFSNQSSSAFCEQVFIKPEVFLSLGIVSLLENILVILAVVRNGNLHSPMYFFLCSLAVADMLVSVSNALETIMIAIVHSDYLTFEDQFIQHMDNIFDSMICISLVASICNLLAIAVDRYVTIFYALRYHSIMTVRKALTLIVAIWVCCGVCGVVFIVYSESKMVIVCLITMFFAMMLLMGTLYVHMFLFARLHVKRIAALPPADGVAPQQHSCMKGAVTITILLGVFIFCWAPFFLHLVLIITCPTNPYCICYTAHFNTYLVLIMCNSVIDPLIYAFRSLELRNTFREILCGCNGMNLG
Chain of cGMP-inhibited 3',5'-cyclic phosphodiesterase 3A (Q14432 whole entry): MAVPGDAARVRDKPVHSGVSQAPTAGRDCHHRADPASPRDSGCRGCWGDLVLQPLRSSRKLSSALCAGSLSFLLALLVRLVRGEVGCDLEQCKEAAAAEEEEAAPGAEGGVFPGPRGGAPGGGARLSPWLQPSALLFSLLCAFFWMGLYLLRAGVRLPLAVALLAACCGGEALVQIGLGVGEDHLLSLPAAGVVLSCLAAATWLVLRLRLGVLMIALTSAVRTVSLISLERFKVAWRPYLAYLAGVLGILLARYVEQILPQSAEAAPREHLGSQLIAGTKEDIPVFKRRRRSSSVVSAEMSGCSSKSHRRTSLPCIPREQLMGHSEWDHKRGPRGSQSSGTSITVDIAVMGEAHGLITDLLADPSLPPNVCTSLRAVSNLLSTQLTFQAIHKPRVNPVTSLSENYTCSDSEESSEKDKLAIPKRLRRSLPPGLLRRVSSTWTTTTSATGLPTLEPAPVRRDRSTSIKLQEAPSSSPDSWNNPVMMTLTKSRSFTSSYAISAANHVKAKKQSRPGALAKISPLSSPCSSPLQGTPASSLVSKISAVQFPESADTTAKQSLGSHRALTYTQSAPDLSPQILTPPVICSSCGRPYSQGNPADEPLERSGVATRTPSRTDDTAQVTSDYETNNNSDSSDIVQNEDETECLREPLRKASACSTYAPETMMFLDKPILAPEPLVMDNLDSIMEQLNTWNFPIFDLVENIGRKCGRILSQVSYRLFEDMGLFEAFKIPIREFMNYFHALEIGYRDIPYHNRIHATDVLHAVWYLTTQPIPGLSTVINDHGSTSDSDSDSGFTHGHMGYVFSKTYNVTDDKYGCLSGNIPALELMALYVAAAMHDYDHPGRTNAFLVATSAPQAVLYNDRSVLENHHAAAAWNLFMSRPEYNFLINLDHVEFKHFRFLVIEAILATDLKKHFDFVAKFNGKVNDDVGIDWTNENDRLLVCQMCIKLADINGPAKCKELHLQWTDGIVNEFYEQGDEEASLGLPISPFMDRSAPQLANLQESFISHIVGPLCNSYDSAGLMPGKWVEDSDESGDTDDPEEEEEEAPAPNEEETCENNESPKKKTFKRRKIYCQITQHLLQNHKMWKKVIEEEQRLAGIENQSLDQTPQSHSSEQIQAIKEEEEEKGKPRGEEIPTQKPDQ

SMILES	AC50 (Melanocortin receptor 3)	AC50 [1]	AC50 (D(3) dopamine receptor)	AC50 [2]	AC50 (Progesterone receptor)	AC50 [3]	AC50 [4]	AC50 [5]	AC50 (Histamine H2 receptor)	AC50 (Adenosine receptor A3)
C=CC[N+]1([C@H]2C[C@H]3[C@@H]4CC[C@H]5C[C@H](O)[C@@H](N6CCOCC6)C[C@]5(C)[C@H]4CC[C@]3(C)[C@H]2OC(C)=O)CCCC1 [ROCURONIUM]	> 30 µM	> 30 µM	> 30 µM	> 30 µM	> 30 µM	> 30 µM	> 30 µM	> 30 µM	> 30 µM	> 30 µM
CCCN1CCCC[C@H]1C(=O)Nc1c(C)cccc1C [ROPIVACAINE]	> 30 µM	> 30 µM	> 30 µM	> 30 µM	> 30 µM	> 30 µM	> 30 µM	> 30 µM	> 30 µM	> 30 µM
Cc1cc(C)nc(NS(=O)(=O)c2ccc(N)cc2)n1 [SULFAMETHAZINE]	> 10 µM	> 30 µM	> 30 µM	> 30 µM	> 10 µM	> 30 µM	> 10 µM	> 10 µM	> 30 µM	> 10 µM
C=CCN1CCc2nc(N)sc2CC1 [TALIPEXOLE]	> 30 µM	> 30 µM	0.48 µM	> 30 µM	> 30 µM	> 30 µM	> 30 µM	> 30 µM	> 30 µM	> 30 µM
Cn1c(=O)c2c(ncn2CCOC(=O)C(C)(C)Oc2ccc(Cl)cc2)n(C)c1=O [THEOFIBRATE]	> 30 µM	> 30 µM	> 30 µM	> 30 µM	> 30 µM	> 30 µM	> 30 µM	> 30 µM	> 30 µM	> 30 µM
COc1cc(C(=O)NC2CCCNC2)cc(OC)c1OC (stereo not given) [TROXIPIDE]	> 30 µM	> 30 µM	> 30 µM	> 30 µM	> 30 µM	> 30 µM	> 30 µM	> 30 µM	> 30 µM	> 30 µM
CC(C)(C)NCC(O)c1ccccc1Cl (stereo not given) [TULOBUTEROL]	> 30 µM	> 30 µM	> 30 µM	> 30 µM	> 30 µM	> 30 µM	> 30 µM	> 30 µM	> 30 µM	> 30 µM
CC(C(=O)O)c1ccc2c(c1)CC(=O)c1ccccc1S2 (stereo not given) [ZALTOPROFEN]	> 30 µM	> 30 µM	> 30 µM	24 µM	> 30 µM	> 30 µM	> 30 µM	> 30 µM	> 30 µM	> 30 µM
CC(c1cc2ccccc2s1)N(O)C(N)=O (stereo not given) [ZILEUTON]	> 10 µM	> 30 µM	> 30 µM	> 30 µM	> 30 µM	> 10 µM	> 10 µM	> 10 µM	> 10 µM	> 10 µM
